Measured values: publication PMC6200399 (ACS chemical biology, 2018)
Where “and” joins values, the source holds several entries; their conditions need not be identical. Equal values may be shown once.

Legend:
[1] = molecular target: T1, RhlR (Pseudomonas aeruginosa, UniProt P54292); assay: P. aeruginosa PAO-JP2; assay type: cell-based; conditions: read-out: EC50 (RhlR agonism, P. aeruginosa); P. aeruginosa PAO-JP2 prhlI-LVAgfp; in the presence of 100 nM OdDHL
[2] = molecular target: LasR (Pseudomonas aeruginosa, UniProt P25084); assay: E. coli LasR reporter antagonism assay; assay type: cell-based, P. aeruginosa; conditions: compounds at 1 mM, versus 2 nM OdDHL (Table S3)
Chain of LasR (P25084 whole entry): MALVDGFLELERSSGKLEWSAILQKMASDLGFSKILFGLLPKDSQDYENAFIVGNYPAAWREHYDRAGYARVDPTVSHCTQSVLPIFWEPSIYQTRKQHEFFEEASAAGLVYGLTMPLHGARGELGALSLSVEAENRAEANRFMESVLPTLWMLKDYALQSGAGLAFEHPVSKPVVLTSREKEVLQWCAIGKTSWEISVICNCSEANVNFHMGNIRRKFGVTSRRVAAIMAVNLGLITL

[3] = molecular target: T1, RhlR; assay: E. coli RhlR reporter agonism assay; assay type: cell-based, P. aeruginosa; conditions: for fold more potent than BHL (RhlR agonism potency): EC50 relative to BHL; for % activation: compounds screened at 10 μM, RhlR activity relative to BHL at 1 mM, E. coli reporter; for EC50: read-out: EC50 (RhlR agonism, E. coli), E. coli RhlR reporter, dose-response
[4] = molecular target: T1, RhlR; assay: E. coli RhlR reporter competitive antagonism assay versus 10 μM BHL; assay type: cell-based, P. aeruginosa; conditions: compounds screened at 1 mM in the presence of 10 μM BHL, relative to activation of 10 μM BHL alone

T1 sequence (P54292 whole entry): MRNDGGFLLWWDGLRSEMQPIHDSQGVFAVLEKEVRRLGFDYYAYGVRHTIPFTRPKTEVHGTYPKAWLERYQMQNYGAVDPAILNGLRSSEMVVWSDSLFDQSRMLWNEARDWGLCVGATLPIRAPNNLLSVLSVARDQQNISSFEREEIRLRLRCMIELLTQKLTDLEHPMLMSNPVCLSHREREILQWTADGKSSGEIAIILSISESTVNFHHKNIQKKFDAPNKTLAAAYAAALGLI

Compound	EC50 [1]	% activation [3]	EC50 [3]	also measured
O=C(NC1CCOC1=O)C1CCC1 (stereo not shown) [Compound 17, cyclobutanoyl HL]	1.41 µM	79%	1.78 µM	LasR antagonism (% inhibition) [2]: > 70%; fold more potent than BHL (RhlR agonism potency) [3]: ~10 fold
propyl HL [Compound 4]	–	25%	–	–
1-methyl-cyclopropanoyl HL [Compound 20]	–	–	–	% inhibition [4]: 24%
pentenyl HL [Compound 2, reference compound]	–	54%	7.93 µM	–
CCCC(=O)NC1CCSC1=O (stereo not shown) [Compound 26]	3.82 µM	71%	4.87 µM	–
CCCC(=O)N[C@H]1CCNC1=O [Compound 27]	–	1%	–	–
CCC(C)C(=O)NC1CCOC1=O (stereo not shown) [Compound 8, 2-methylbutanoyl HL]	–	55%	7.77 µM	–
CCCC(=O)NC1CCOC1 (stereo not shown) [Compound 30]	–	0%	–	–
Butenyl HL [Compound 14]	–	–	6.93 µM	–
cyclopropyl HL [Compound 18]	–	32%	–	–
CCCC(=O)NC1CCCC1=O (stereo not shown) [Compound 28]	14.3 µM	35%	27.4 µM	fold less active than BHL (RhlR agonism potency) ([3]; E. coli reporter EC50 relative to BHL, p < 0.05): under 3 fold
CC(C)CC(=O)N[C@H]1CCOC1=O [Compound 7, isovaleryl HL]	1.42 µM	86%	1.02 µM	LasR antagonism (% inhibition) [2]: > 70%; fold more potent than BHL (RhlR agonism potency) [3]: ~10 fold
cyclopentyl HL [Compound 3, reference compound]	1.22 µM	76%	1.58 µM	–
CCCC(=O)N[C@@H]1CCOC1=O [Compound 25, D-BHL]	–	2%	–	% inhibition [4]: 11%; RhlR agonism at 1 mM ([3]; compound at 1 mM, E. coli reporter (Table S2)): marginal activity
CCCC(=O)N[C@H]1CCOC1=O [Compound 1, N-butanoyl-L-homoserine lactone, reference compound]	–	51%	–	LasR antagonism (% inhibition) [2]: antagonize; EC50 ([3]; listed as 1 (BHL)): 8.95 µM; EC50 ([3]; listed as BHL): ~10 µM and ~9 µM
